From ChEMBL document CHEMBL1145130, “S-acyl-2-thioethyl phosphoramidate diester derivatives as mononucleotide prodrugs” (J Med Chem, 2003)

Tests used:
[1] = system: Human immunodeficiency virus 1; test: Effective concentration required to inhibit HIV-1 replication in MT-4 cell line; format: functional, organism-based; details: Human immunodeficiency virus 1, MT4
CEM-TK(-) (Homo sapiens) = test: Compound was tested for its cytotoxic concentration required to reduce viability of uninfected cells in CEM/TK(-) cell line
CEM-SS = test: Cytotoxic concentration required to reduce viability of uninfected cells in CEM-SS cell line; format: functional; details: Homo sapiens
[2] = system: Human immunodeficiency virus 1; test: Effective concentration required to inhibit HIV-1 replication in CEM/TK cell line; format: functional, organism-based; details: Human immunodeficiency virus 1, CEM-TK(-)
MT4 = test: Cytotoxic concentration required to reduce viability of uninfected cells in MT-4 cell line; format: functional; details: Homo sapiens
[3] = system: Human immunodeficiency virus 1; test: Effective concentration required to inhibit HIV-1 replication in CEM-SS cell line; format: functional, organism-based; details: Human immunodeficiency virus 1, CEM-SS
CEM/TK- (Homo sapiens) = test: Cytotoxic concentration required to reduce viability of uninfected cells in CEM/TK cell line

| SMILES | EC50 [1] | CC50 (CEM-TK(-) (Homo sapiens)) | CC50 (CEM-SS) | EC50 [2] | CC50 (MT4) | EC50 [3] | CC50 (CEM/TK- (Homo sapiens)) |
| --- | --- | --- | --- | --- | --- | --- | --- |
| COC(=O)C(C)(C)NP(=O)(OCCSC(=O)C(C)(C)C)OCC1OC(n2cc(C)c(=O)[nH]c2=O)CC1N=[N+]=[N-] (stereo not given) | 540 nM | > 100000 nM | > 100000 nM | 2900 nM | > 100000 nM | 80 nM |  |
| COC(=O)[C@H](Cc1ccccc1)NP(=O)(OCCSC(=O)C(C)(C)C)OCC1OC(n2cc(C)c(=O)[nH]c2=O)CC1N=[N+]=[N-] (stereo not given in full) | 250 nM |  | > 100000 nM | 2300 nM | > 10000 nM | 27 nM | > 10000 nM |
| COC(=O)C(C)NP(=O)(OCCSC(=O)C(C)(C)C)OCC1OC(n2cc(C)c(=O)[nH]c2=O)CC1N=[N+]=[N-] (stereo not given) | 420 nM |  | > 100000 nM | 2100 nM | > 100000 nM | 20 nM | > 100000 nM |
| Cc1cn(C2CC(N=[N+]=[N-])C(COP(=O)(OCCSC(=O)C(C)(C)C)N3CCCCC3)O2)c(=O)[nH]c1=O (stereo not given) | 220 nM |  | > 100000 nM | 5200 nM | > 100000 nM | 20 nM | > 100000 nM |
| COC(=O)[C@H](C)NP(=O)(OC[C@H]1O[C@@H](n2cc(C)c(=O)[nH]c2=O)C[C@@H]1N=[N+]=[N-])Oc1ccccc1 (stereo not given in full) | 340 nM |  | > 100000 nM | 4300 nM | > 10000 nM | 50 nM | > 100000 nM |
| COC(=O)[C@H](Cc1ccc(O)cc1)NP(=O)(OCCSC(=O)C(C)(C)C)OCC1OC(n2cc(C)c(=O)[nH]c2=O)CC1N=[N+]=[N-] (stereo not given in full) | 740 nM |  | > 100000 nM | 5300 nM | > 100000 nM | 90 nM | > 100000 nM |
| COC(=O)[C@@H](C)NP(=O)(OCCSC(=O)C(C)(C)C)OCC1OC(n2cc(C)c(=O)[nH]c2=O)CC1N=[N+]=[N-] (stereo not given in full) | 450 nM |  | > 100000 nM | 2400 nM | > 100000 nM | 70 nM | > 100000 nM |
| Cc1cn(C2CC(N=[N+]=[N-])C(COP(=O)(Nc3ccccc3)OCCSC(=O)C(C)(C)C)O2)c(=O)[nH]c1=O (stereo not given) | 700 nM |  | > 10000 nM | > 10000 nM | > 10000 nM | 5 nM | > 10000 nM |
| COC(=O)[C@H](COC(C)=O)NP(=O)(OCCSC(=O)C(C)(C)C)OCC1OC(n2cc(C)c(=O)[nH]c2=O)CC1N=[N+]=[N-] (stereo not given in full) | 53 nM |  | > 100000 nM | 16000 nM | > 100000 nM | 7 nM | > 100000 nM |
| COC(=O)[C@H](C)NP(=O)(OCCSC(=O)C(C)(C)C)OCC1OC(n2cc(C)c(=O)[nH]c2=O)CC1N=[N+]=[N-] (stereo not given in full) | 340 nM |  | > 100000 nM | 4300 nM | > 100000 nM | 54 nM | > 100000 nM |
| COC(=O)[C@H](CO[Si](C)(C)C(C)(C)C)NP(=O)(OCCSC(=O)C(C)(C)C)OCC1OC(n2cc(C)c(=O)[nH]c2=O)CC1N=[N+]=[N-] (stereo not given in full) | 400 nM |  | > 10000 nM | 1000 nM | > 10000 nM | 100 nM | > 10000 nM |
| CCC(NP(=O)(OCCSC(=O)C(C)(C)C)OCC1OC(n2cc(C)c(=O)[nH]c2=O)CC1N=[N+]=[N-])C(=O)OC (stereo not given) | 130 nM |  | > 100000 nM | 2400 nM | > 100000 nM | 6 nM | > 100000 nM |
| COC(=O)CNP(=O)(OCCSC(=O)C(C)(C)C)OCC1OC(n2cc(C)c(=O)[nH]c2=O)CC1N=[N+]=[N-] (stereo not given) | 450 nM |  | > 100000 nM | 1400 nM | > 100000 nM | 9 nM | > 100000 nM |
| Cc1cn(C2CC(N=[N+]=[N-])C(COP(=O)(NC(C)C)OCCSC(=O)C(C)(C)C)O2)c(=O)[nH]c1=O (stereo not given) | 130 nM |  | > 100000 nM | 750 nM | > 100000 nM | 20 nM | > 100000 nM |
| Cc1cn([C@H]2C[C@H](N=[N+]=[N-])[C@@H](CO)O2)c(=O)[nH]c1=O [ZIDOVUDINE] | 17 nM |  | > 100000 nM | > 100000 nM | 75000 nM | 6 nM | > 100000 nM |
